In patent US20250332178A1, “METHODS OF TREATING MYCOBACTERIAL INFECTIONS USING TETRACYCLINE COMPOUNDS” (priority 2018, published 2025):
Where two headings read alike, the source gives them in different places.

Key:
[1] = test system: rapid-growing mycobacteria (RGM) isolates; assay: MIC (CLSI broth dilution), all RGM isolates; type: cell-based, nontuberculous mycobacteria
[2] = test system: M. abscessus complex; assay: MIC (CLSI broth dilution), RGM isolates; type: cell-based; settings: Mycobacteroides abscessus
[3] = test system: M. chelonae; assay: MIC (CLSI broth dilution), RGM isolates; type: cell-based; settings: Mycobacteroides chelonae
[4] = test system: M. fortuitum group; assay: MIC (CLSI broth dilution), RGM isolates; type: cell-based; settings: Mycolicibacterium fortuitum, read-out: MIC, CLA Extended

CC[C@H]1OC(=O)[C@H](C)[C@@H](O[C@H]2C[C@@](C)(OC)[C@@H](O)[C@H](C)O2)[C@H](C)[C@@H](O[C@@H]2O[C@H](C)C[C@H](N(C)C)[C@H]2O)[C@](C)(OC)C[C@@H](C)C(=O)[C@H](C)[C@@H](O)[C@]1(C)O [clarithromycin]
≤ 0.06 µg/mL: MIC ([2]; 336 h, isolate 5, massiliense/subsp. abs hybrid, extended reading, up to/including 14 days, read-out: MIC, CLA Extended) | MIC ([2]; isolate 1, MAB30, initial reading, generally 3-4 days, read-out: MIC, CLA Initial) | MIC ([2]; isolate 2, MAB30, initial reading, generally 3-4 days, read-out: MIC, CLA Initial) | MIC ([2]; isolate 5, massiliense/subsp. abs hybrid, initial reading, generally 3-4 days, read-out: MIC, CLA Initial) | MIC ([2]; isolate 14, Type 6 abscessus, initial reading, generally 3-4 days, read-out: MIC, CLA Initial) | MIC ([2]; isolate 16, Type 7 abscessus, initial reading, generally 3-4 days, read-out: MIC, CLA Initial)
32 µg/mL: MIC ([2]; 264 h, isolate 10, Type 1 abscessus, extended reading (11 d), read-out: MIC, CLA Extended)
1 µg/mL: MIC ([2]; 336 h, isolate 1, MAB30, extended reading, up to/including 14 days, read-out: MIC, CLA Extended) | MIC ([3]; isolate 22, M. chelonae, initial reading, generally 3-4 days, read-out: MIC, CLA Initial)
2 µg/mL: MIC50 ([1]; 336 h, all RGM isolates, extended reading, up to/including 14 days, read-out: MIC50, CLA Extended) | MIC90 ([1]; all 50 RGM isolates, initial reading, generally 3-4 days, read-out: MIC90, CLA Initial) | MIC ([2]; 336 h, isolate 2, MAB30, extended reading, up to/including 14 days, read-out: MIC, CLA Extended) | MIC ([2]; 336 h, isolate 3, MAB30, extended reading, up to/including 14 days, read-out: MIC, CLA Extended) | MIC ([2]; 336 h, isolate 4, massiliense, extended reading, up to/including 14 days, read-out: MIC, CLA Extended) | MIC ([2]; isolate 9, Type 1 abscessus, initial reading, generally 3-4 days, read-out: MIC, CLA Initial) | MIC ([3]; 336 h, isolate 18, M. chelonae, extended reading, up to/including 14 days, read-out: MIC, CLA Extended) | MIC ([3]; 336 h, isolate 21, M. chelonae, extended reading, up to/including 14 days, read-out: MIC, CLA Extended) | MIC ([3]; 336 h, isolate 22, M. chelonae, extended reading, up to/including 14 days, read-out: MIC, CLA Extended)
0.5 µg/mL: MIC ([2]; isolate 3, MAB30, initial reading, generally 3-4 days, read-out: MIC, CLA Initial) | MIC ([2]; isolate 15, Type 7 abscessus, initial reading, generally 3-4 days, read-out: MIC, CLA Initial) | MIC ([3]; 336 h, isolate 19, M. chelonae, extended reading, up to/including 14 days, read-out: MIC, CLA Extended) | MIC ([3]; 336 h, isolate 20, M. chelonae, extended reading, up to/including 14 days, read-out: MIC, CLA Extended) | MIC ([3]; isolate 20, M. chelonae, initial reading, generally 3-4 days, read-out: MIC, CLA Initial) | MIC ([3]; isolate 21, M. chelonae, initial reading, generally 3-4 days, read-out: MIC, CLA Initial)
0.25 µg/mL: MIC50 ([1]; all 50 RGM isolates, initial reading, generally 3-4 days, read-out: MIC50, CLA Initial) | MIC ([2]; isolate 6, Type 1 abscessus, initial reading, generally 3-4 days, read-out: MIC, CLA Initial) | MIC ([2]; isolate 10, Type 1 abscessus, initial reading, generally 3-4 days, read-out: MIC, CLA Initial) | MIC ([2]; isolate 12, Type 6 abscessus, initial reading, generally 3-4 days, read-out: MIC, CLA Initial) | MIC ([2]; isolate 13, Type 6 abscessus, initial reading, generally 3-4 days, read-out: MIC, CLA Initial) | MIC ([2]; isolate 17, Type 8 abscessus, initial reading, generally 3-4 days, read-out: MIC, CLA Initial) | MIC ([3]; isolate 18, M. chelonae, initial reading, generally 3-4 days, read-out: MIC, CLA Initial) | MIC ([3]; isolate 19, M. chelonae, initial reading, generally 3-4 days, read-out: MIC, CLA Initial)
> 32 µg/mL: MIC90 ([1]; 336 h, all RGM isolates, extended reading, up to/including 14 days, read-out: MIC90, CLA Extended) | MIC ([2]; 168 h, isolate 12, Type 6 abscessus, extended reading (7 d), read-out: MIC, CLA Extended) | MIC ([2]; 240 h, isolate 7, Type 1 abscessus, extended reading (10 d), read-out: MIC, CLA Extended) | MIC ([2]; 240 h, isolate 9, Type 1 abscessus, extended reading (10 d), read-out: MIC, CLA Extended) | MIC ([2]; 240 h, isolate 11, Type 6 abscessus, extended reading (10 d), read-out: MIC, CLA Extended) | MIC ([2]; 240 h, isolate 15, Type 7 abscessus, extended reading (10 d), read-out: MIC, CLA Extended) | MIC ([2]; 240 h, isolate 16, Type 7 abscessus, extended reading (10 d), read-out: MIC, CLA Extended) | MIC ([2]; 240 h, isolate 17, Type 8 abscessus, extended reading (10 d), read-out: MIC, CLA Extended) | MIC ([2]; 264 h, isolate 8, Type 1 abscessus, extended reading (11 d), read-out: MIC, CLA Extended) | MIC ([2]; 264 h, isolate 13, Type 6 abscessus, extended reading (11 d), read-out: MIC, CLA Extended) | MIC ([2]; 336 h, isolate 14, Type 6 abscessus, extended reading (14 d), read-out: MIC, CLA Extended) | MIC ([4]; 168 h, isolate 23, M. fortuitum, extended reading (7 d)) | MIC ([4]; 168 h, isolate 25, M. fortuitum, extended reading (7 d)) | MIC ([4]; 168 h, isolate 29, M. porcinum/M. boenickei, extended reading (7 d)) | MIC ([4]; 240 h, isolate 24, M. fortuitum, extended reading (10 d))
0.12 µg/mL: MIC ([2]; isolate 4, massiliense, initial reading, generally 3-4 days, read-out: MIC, CLA Initial) | MIC ([2]; isolate 7, Type 1 abscessus, initial reading, generally 3-4 days, read-out: MIC, CLA Initial) | MIC ([2]; isolate 8, Type 1 abscessus, initial reading, generally 3-4 days, read-out: MIC, CLA Initial) | MIC ([2]; isolate 11, Type 6 abscessus, initial reading, generally 3-4 days, read-out: MIC, CLA Initial)
